Data: PMC8760490, “Discovery of novel furanylbenzamide inhibitors that target oncogenic tyrosine phosphatase SHP2 in leukemia cells” (The Journal of Biological Chemistry, 2021)

Tests used:
[1] = test system: phospho-ERK1/2 (p-ERK1/2) in U-937 AML cells; experiment: p-ERK1/2 immunoblot, U-937; assay type: cell-based; conditions: SBI-4668 1, 3, 10, 30 μM, RMC-4550 1 μM
Excerpt: (§1) Oncogenic gain-of-function mutations in SHP2 drive leukemogenesis in a significant number of leukemia patients. However, because of their unique mechanism of action, the existing SHP2 allosteric inhibitors lack activity against the most common SHP2 oncogenic variants. Thus, we tested whether our inhibitors could inhibit the growth of leukemia cells expressing oncogenic SHP2 variants. […] Thus, we tested both SBI-4668 and RMC-4550 on U-937 AML cells, which harbor a G60R oncogenic mutation in SHP2. We treated cells with either SBI-4668 or RMC-4550 at various concentrations, ranging from 0.123 to 30 μM (Fig. 5A). […] We also assessed the effects of SBI-4668 and RMC-4550 on ERK1/2 activation in the SHP2 mutant U-937 cell line. Similar to the immunoblot experiments described for MOLM-13 cells above, U-937 AML cells were treated with either vehicle control (DMSO), SBI-4668 (1, 3, 10, or 30 μM), or with RMC-4550 (1 μM) for 24 h and processed for p-ERK1/2 immunoblot analysis (Fig. 5B).
Cells cultured in RPMI medium were treated as indicated in the legends to the figures. […] Densitometric quantitation of immunoblots was performed using Image Studio Lite Software (LI-COR). Changes of phosphorylated ERK1/2 to total ERK1/2 ratios are expressed as percentage of the vehicle-treated controls. […]

[2] = test system: patient-derived AML cells; experiment: Viability of patient-derived AML cells; assay type: cell-based, human; conditions: 10 μM; 2, 4 or 6 days in culture
Excerpt: (§2) Because SHP2 activity is critical for ERK activation, we used phospho-ERK1/2 (p-ERK1/2) as a more direct readout of SHP2 inhibitor efficacy. […] This p-ERK rebound in MOLM-13 cells treated with RMC-4550 is reminiscent of previously reported data from human hepatoma Hep3B cells treated with SHP099 ([34]). We also tested the effects of SBI-4668 or RMC-4550 on two patient-derived AML samples (Fig. 4F).
Patient-derived AML cells were obtained from Carol Burian and Dr James Mason (Scripps MD Anderson Center) under approved Institutional Review Board protocol 13-6180. […] Final peripheral blood mononuclear cells were resuspended in Bambanker serum-free freezing medium (Wako Pure Chemical Industries, Ltd) and stored frozen before cell viability was assessed as described later.
(§3) Viability of AML and esophageal carcinoma cells was assessed using the ATP-depletion assay CellTiter-Glo (Promega). Cells were harvested at 1 × 10^6/ml to 2 × 10^6 cells/ml with cell numbers determined by trypan blue using the Countess Cell counter (Thermo Scientific) and resuspended in culture media. […] Luminescence was read on a Tecan Spark Multimode Microplate Reader, and data were analyzed using GraphPad Prism software.

[3] = test system: phospho-ERK1/2 (p-ERK1/2) in MOLM-13 AML cells; experiment: p-ERK1/2 immunoblot, MOLM-13; assay type: cell-based; conditions: 3 h; SBI-4668 3, 10, 30 μM; RMC-4550 1 μM
Method: as §2
Cells cultured in RPMI medium were treated as indicated in the legends to the figures. Total protein extracts were prepared in modified radioimmunoprecipitation assay lysis buffer (25 mM Tris–HCl, pH 7.4, 10% glycerol, 0.2% Triton X-100, 150 mM NaCl, 2 mM Na3VO4, and 1 mM EDTA) containing a protease inhibitor cocktail (Roche Applied Science). Equal amounts of protein were separated on 4 to 12% (p-ERK1/2 blots) or 4 to 20% (SHP2 blots) Bis–Tris gels by SDS-PAGE and transferred to nitrocellulose (p-ERK1/2 blots) or 0.2 μm polyvinylidene fluoride (SHP2 blots) membranes. Membranes were blocked in 5% dry milk (Bio-Rad) in Tris-buffered saline–Tween-20 (TBS–T) (0.1% v/v) for 1 h at RT. Protein-bound membranes were incubated with indicated primary antibody overnight at 4 °C. After washing three times with TBS-T, membranes were incubated for 1 h with horseradish peroxidase–conjugated secondary antibody and then visualized by an ECL Prime detection system (GE Healthcare). Immunoblotting experiments were carried out at least three times, and representative images are shown. Densitometric quantitation of immunoblots was performed using Image Studio Lite Software (LI-COR). Changes of phosphorylated ERK1/2 to total ERK1/2 ratios are expressed as percentage of the vehicle-treated controls. The following antibodies were used: Phospho-Erk1/2 Ab (catalog no.: 9101S; Cell Signaling); total Erk1/2 Ab (catalog no.: 9102S; Cell Signaling); SHP2 Ab (catalog no.: A301-544A; lot no.: 1; Bethyl); and GAPDH (14C10) mAb (catalog no.: 2118S; lot no.: 14; Cell Signaling).

[4] = test system: mutant SHP2 (E76K) in live cells; design: method as in PMID 31953320, PMID 32744526; conditions: cellular thermal shift assay; cited from earlier work
[5] = test system: U-937 AML cells (G60R oncogenic mutation in SHP2); experiment: Cell viability (CellTiter-Glo), U-937; assay type: cell-based; conditions: 3 days, 0.123 to 30 μM
Excerpt: as §1, with “Similar to the immunoblot experiments described for MOLM-13 cells above, U-937 AML cells were treated with either vehicle control (DMSO), SBI-4668 (1, 3, 10, or 30 μM), or with RMC-4550 (1 μM) for 24 h and processed for p-ERK1/2 immunoblot analysis (Fig. 5B).” left out
as §3

- IC50 [5]: 33 µM
Compound: Cc1nc(N2CCC3(CC2)CO[C@@H](C)[C@H]3N)c(CO)nc1-c1cccc(Cl)c1Cl [RMC-4550, reference compound]
- p-ERK1/2 levels, U-937, 24 h [1]: not detectable
- growth of two patient-derived AML samples [2]: only affected the growth of sample 2
- p-ERK1/2 levels, MOLM-13, 3 h [3]: highly effective in impeding ERK1/2 activation
- cellular target engagement with mutant SHP2 [4]: greatly decreased cellular target engagement
